Activity calls are given as the source filed them. The rule behind the calls is not given here.
System: CCRIS mutagenicity, Ames/micronucleus/aberration tests
Test: CCRIS mutagenicity studies
[1] = Test System: AMES SALMONELLA TYPHIMURIUM, Strain/Indicator: TA97, Metabolic Activation: NONE, Method: PREINCUBATION
[2] = Test System: AMES SALMONELLA TYPHIMURIUM, Strain/Indicator: TA98, Metabolic Activation: HAMSTER, LIVER, S-9, AROCLOR 1254 (10 OR 30%), Method: PREINCUBATION
[3] = Test System: AMES SALMONELLA TYPHIMURIUM, Strain/Indicator: TA98, Metabolic Activation: NONE, Method: PREINCUBATION
[4] = Test System: AMES SALMONELLA TYPHIMURIUM, Strain/Indicator: TA98, Metabolic Activation: RAT, LIVER, S-9, AROCLOR 1254 (10 OR 30%), Method: PREINCUBATION
[5] = Test System: AMES SALMONELLA TYPHIMURIUM, Strain/Indicator: TA100, Metabolic Activation: NONE, Method: PREINCUBATION
[6] = Test System: AMES SALMONELLA TYPHIMURIUM, Strain/Indicator: TA1535, Metabolic Activation: HAMSTER, LIVER, S-9, AROCLOR 1254 (10 OR 30%), Method: PREINCUBATION
[7] = Test System: AMES SALMONELLA TYPHIMURIUM, Strain/Indicator: TA1535, Metabolic Activation: NONE, Method: PREINCUBATION
[8] = Test System: AMES SALMONELLA TYPHIMURIUM, Strain/Indicator: TA1535, Metabolic Activation: RAT, LIVER, S-9, AROCLOR 1254 (10 OR 30%), Method: PREINCUBATION

In the case of `CCOC(C)(C)C`, the mutagenic call (Test System: AMES SALMONELLA TYPHIMURIUM, Strain/Indicator: TA97, Metabolic Activation: HAMSTER, LIVER, S-9, AROCLOR 1254 (10 OR 30%), Method: PREINCUBATION) was “inactive; negative”, the mutagenic call [1] was “inactive; negative” and the mutagenic call (Test System: AMES SALMONELLA TYPHIMURIUM, Strain/Indicator: TA97, Metabolic Activation: RAT, LIVER, S-9, AROCLOR 1254 (10 OR 30%), Method: PREINCUBATION) was “inactive; negative”. The mutagenic call [2] was “inactive; negative”, the mutagenic call [3] was “inactive; negative” and the mutagenic call [4] was “inactive; negative”. The mutagenic call (Test System: AMES SALMONELLA TYPHIMURIUM, Strain/Indicator: TA100, Metabolic Activation: HAMSTER, LIVER, S-9, AROCLOR 1254 (10 OR 30%), Method: PREINCUBATION) was “inactive; negative”, the mutagenic call [5] was “inactive; negative” and the mutagenic call (Test System: AMES SALMONELLA TYPHIMURIUM, Strain/Indicator: TA100, Metabolic Activation: RAT, LIVER, S-9, AROCLOR 1254 (10 OR 30%), Method: PREINCUBATION) was “inactive; negative”. The mutagenic call [6] was “inactive; negative”, the mutagenic call [7] was “inactive; negative” and the mutagenic call [8] was “inactive; negative”.
`CCC1NC(=O)c2cc(S(N)(=O)=O)c(Cl)cc2N1` (configuration not stated) was tested, and the mutagenic call (Test System: AMES SALMONELLA TYPHIMURIUM, Strain/Indicator: TA97, Metabolic Activation: HAMSTER, LIVER, S-9, AROCLOR 1254 (10%), Method: PREINCUBATION) was “inactive; negative”, the mutagenic call (Test System: AMES SALMONELLA TYPHIMURIUM, Strain/Indicator: TA97, Metabolic Activation: HAMSTER, LIVER, S-9, AROCLOR 1254 (30%), Method: PREINCUBATION) was “inactive; negative” and the mutagenic call [1] was “inactive; negative”. The mutagenic call (Test System: AMES SALMONELLA TYPHIMURIUM, Strain/Indicator: TA97, Metabolic Activation: RAT, LIVER, S-9, AROCLOR 1254 (10%), Method: PREINCUBATION) was “inactive; negative”, the mutagenic call (Test System: AMES SALMONELLA TYPHIMURIUM, Strain/Indicator: TA97, Metabolic Activation: RAT, LIVER, S-9, AROCLOR 1254 (30%), Method: PREINCUBATION) was “inactive; negative” and the mutagenic call [2] was “inactive; negative”. The mutagenic call [3] was “inactive; negative”, the mutagenic call [4] was “inactive; negative” and the mutagenic call (Test System: AMES SALMONELLA TYPHIMURIUM, Strain/Indicator: TA100, Metabolic Activation: HAMSTER, LIVER, S-9, AROCLOR 1254 (5 OR 10%), Method: PREINCUBATION) was “inactive; negative”. For the same molecule, the mutagenic call (Test System: AMES SALMONELLA TYPHIMURIUM, Strain/Indicator: TA100, Metabolic Activation: HAMSTER, LIVER, S-9, AROCLOR 1254 (30%), Method: PREINCUBATION) was “inactive; negative”, the mutagenic call [5] was “inactive; negative” and the mutagenic call (Test System: AMES SALMONELLA TYPHIMURIUM, Strain/Indicator: TA100, Metabolic Activation: RAT, LIVER, S-9, AROCLOR 1254 (5 OR 10%), Method: PREINCUBATION) was “inactive; negative”. For the same molecule, the mutagenic call (Test System: AMES SALMONELLA TYPHIMURIUM, Strain/Indicator: TA100, Metabolic Activation: RAT, LIVER, S-9, AROCLOR 1254 (30%), Method: PREINCUBATION) was “inactive; negative”, the mutagenic call [6] was “inactive; negative” and the mutagenic call [7] was “inactive; negative”. For the same molecule, the mutagenic call [8] was “inactive; negative”.
`COc1cc(OC)c2c(=O)c3c(O)ccc(OC)c3oc2c1` was tested, and the mutagenic call [1] was “inactive; negative”, the mutagenic call (Test System: AMES SALMONELLA TYPHIMURIUM, Strain/Indicator: TA97, Metabolic Activation: RAT, LIVER, S-9, PHENOBARBITAL AND 5,6-BENZOFLAVONE, Method: PREINCUBATION) was “active; positive” and the mutagenic call (Test System: AMES SALMONELLA TYPHIMURIUM, Strain/Indicator: TA98, Metabolic Activation: RAT, LIVER, S-9, PHENOBARBITAL AND 5,6-BENZOFLAVONE, Method: PREINCUBATION) was “inactive; negative”. The mutagenic call (Test System: AMES SALMONELLA TYPHIMURIUM, Strain/Indicator: TA100, Metabolic Activation: RAT, LIVER, S-9, PHENOBARBITAL AND 5,6-BENZOFLAVONE, Method: PREINCUBATION) was “inactive; negative” and the mutagenic call (Test System: AMES SALMONELLA TYPHIMURIUM, Strain/Indicator: TA2637, Metabolic Activation: RAT, LIVER, S-9, PHENOBARBITAL AND 5,6-BENZOFLAVONE, Method: PREINCUBATION) was “active; positive”.
For `CC(C)NCC(O)COc1cccc2[nH]ccc12` (configuration not stated), the mutagenic call (Test System: AMES SALMONELLA TYPHIMURIUM, Strain/Indicator: TA98, Metabolic Activation: NONE) was “inactive; negative”, the mutagenic call (Test System: AMES SALMONELLA TYPHIMURIUM, Strain/Indicator: TA98, Metabolic Activation: RAT, LIVER, S-9, AROCLOR 1254) was “inactive; negative” and the mutagenic call (Test System: AMES SALMONELLA TYPHIMURIUM, Strain/Indicator: TA100, Metabolic Activation: NONE) was “inactive; negative”. The mutagenic call (Test System: AMES SALMONELLA TYPHIMURIUM, Strain/Indicator: TA100, Metabolic Activation: RAT, LIVER, S-9, AROCLOR 1254) was “inactive; negative”, the mutagenic call (Test System: AMES SALMONELLA TYPHIMURIUM, Strain/Indicator: TA1535, Metabolic Activation: NONE) was “inactive; negative” and the mutagenic call (Test System: AMES SALMONELLA TYPHIMURIUM, Strain/Indicator: TA1535, Metabolic Activation: RAT, LIVER, S-9, AROCLOR 1254) was “inactive; negative”. The mutagenic call (Test System: AMES SALMONELLA TYPHIMURIUM, Strain/Indicator: TA1537, Metabolic Activation: NONE) was “inactive; negative” and the mutagenic call (Test System: AMES SALMONELLA TYPHIMURIUM, Strain/Indicator: TA1537, Metabolic Activation: RAT, LIVER, S-9, AROCLOR 1254) was “inactive; negative”.
In the case of `O=CNc1ccc(Oc2ccccc2)cc1`, the mutagenic call (Test System: AMES SALMONELLA TYPHIMURIUM, Strain/Indicator: TA100, Metabolic Activation: NONE, Method: STANDARD PLATE) was “inactive; negative” and the mutagenic call (Test System: AMES SALMONELLA TYPHIMURIUM, Strain/Indicator: TA100, Metabolic Activation: RAT, LIVER, S-9, KANECLOR 500, Method: STANDARD PLATE) was “active; positive”.
In the case of `CCCCNC(=O)c1cc(N)ccc1Oc1ccc(C)cc1`, the mutagenic call (Test System: Ames Salmonella typhimurium, Strain/Indicator: TA98, Metabolic Activation: None, Method: Preincubation) was “inactive; negative. data for pa31 mentioned in abstract only”, the mutagenic call (Test System: Ames Salmonella typhimurium, Strain/Indicator: TA98, Metabolic Activation: Rat, Liver, S-9, Phenobarbital and beta-naphthoflavone, Method: Preincubation) was “active; positive” and the mutagenic call (Test System: Ames Salmonella typhimurium, Strain/Indicator: TA100, Metabolic Activation: None, Method: Preincubation) was “inactive; negative. data for pa31 mentioned in abstract only”. For the same molecule, the mutagenic call (Test System: Ames Salmonella typhimurium, Strain/Indicator: TA100, Metabolic Activation: Rat, Liver, S-9, Phenobarbital and beta-naphthoflavone, Method: Preincubation) was “active; positive”, the mutagenic call (Test System: Ames Salmonella typhimurium, Strain/Indicator: TA102, Metabolic Activation: None, Method: Preincubation) was “inactive; negative. data for pa31 mentioned in abstract only” and the mutagenic call (Test System: Ames Salmonella typhimurium, Strain/Indicator: TA1535, Metabolic Activation: None, Method: Preincubation) was “inactive; negative. data for pa31 mentioned in abstract only”. The mutagenic call (Test System: Ames Salmonella typhimurium, Strain/Indicator: TA1537, Metabolic Activation: None, Method: Preincubation) was “inactive; negative. data for pa31 mentioned in abstract only”.
`CCCc1cc(=O)oc2c3c(c4c(c12)OC(C)(C)CC4)O[C@@H](C)[C@H](C)[C@@H]3O` was tested, and the mutagenic call (Test System: Mouse lymphoma, Strain/Indicator: L5178Y (tk+/tk-), Metabolic Activation: None, Method: Suspension/plate) was “inactive; negative” and the mutagenic call (Test System: Mouse lymphoma, Strain/Indicator: L5178Y (tk+/tk-), Metabolic Activation: Rat, Liver, S-9, Aroclor 1254, Method: Suspension/plate) was “inactive; negative”.

Reference: PubChem BioAssay AID1259407 (Chemical Carcinogenesis Research Information System (CCRIS), 2018)
